Laboratory results from PMC6271945, “Avicequinone C Isolated from Avicennia marina Exhibits 5α-Reductase-Type 1 Inhibitory Activity Using an Androgenic Alopecia Relevant Cell-Based Assay System” (Molecules, 2014).

What was measured:
[1] = target: T1, 5α-reductase type 1 (5α-R1) (Homo sapiens, UniProt P18405); test: HHDPC cell-based assay of testosterone to […]α-DHT conversion (endogenous […]α-R1), non-radioactive TLC detection
T1 construct: gene SRD5A1
T1 sequence (P18405 1-259): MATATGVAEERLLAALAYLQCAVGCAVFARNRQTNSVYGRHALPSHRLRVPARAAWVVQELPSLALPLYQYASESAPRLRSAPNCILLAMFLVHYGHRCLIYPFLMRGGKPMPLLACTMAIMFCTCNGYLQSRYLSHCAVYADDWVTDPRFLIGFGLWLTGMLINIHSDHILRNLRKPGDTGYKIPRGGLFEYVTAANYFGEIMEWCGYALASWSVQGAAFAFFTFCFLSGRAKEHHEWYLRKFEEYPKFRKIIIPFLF

[2] = target: T1, 5α-reductase type 1 (5α-R1); test: HHDPC cell-based assay of testosterone to […]α-DHT conversion (endogenous […]α-R1), TLC detection; positive control

Structure (SMILES) | IC50 [1] | HHDPC cell-based assay of testosterone to 5α-DHT conversion (endogenous 5α-R1), [2]
CC(C)(O)c1cc2c(o1)C(=O)c1ccccc1C2=O [G1, naphtho 2'-(1-hydroxy-1-methylethyl)[2,3-β]furan-1,4-dione] | 38.8 ± 1.29 µM | –
C[C@]12C=CC(=O)N[C@@H]1CC[C@@H]1[C@@H]2CC[C@]2(C)[C@@H](C(=O)Nc3cc(C(F)(F)F)ccc3C(F)(F)F)CC[C@@H]12 [dutasteride] | – | complete inhibition at 0.1 and 0.01 µg/mL; 16.5% at 0.001
